Patent US20160280651A1, “COMPOUNDS THAT INDUCE ABA RESPONSES” (THE REGENTS OF THE UNIVERSITY OF CALIFORNIA, priority 2013, published 2016)
Entries after “also recorded” stand apart in the source; their conditions may differ.

Key:
Assay type in all cases: in vivo
Arabidopsis seeds = assay: Arabidopsis germination inhibition, wild type and mutants, Example 2
Description: FIG. 5A-FIG. 5D. Novel ABA agonists inhibit germination of Arabidopsis seeds more strongly than pyrabactin. (A) and (B) Comparison of seed germination inhibition by ABA agonists. (C) and (D) the effects of ABA and LC66C6 (also called quinabactin) on Arabidopsis ABA signaling- and biosynthesis-deficient mutants on germination (C) and seedling establishment (D). Seeds were sown on ½×MS agar plate containing chemicals, and were stored at 4° C. for 4 days, then transferred at 22±2° C. Photographs (A and C) and germination (B) or green cotyledon (D) scores were assessed after a 4-day incubation under continuous illumination.
As a third screening approach, the Life Chemicals library was also screened for Arabidopsis germination inhibitors in solidified agar medium containing 0.5×MS salts, 0.5% sucrose and 25 μM test compound. Hits from the germination assay were subsequently tested in yeast two hybrid assays. Hit compounds were restocked from their original vendors and used in secondary screens and compound characterization. […]
For Arabidopsis germination and hypocotyl growth inhibition analysis, seeds after-ripened about 4 weeks were surface-sterilized with a solution containing 5% NaClO and 0.05% Tween-20 for 10 minutes, and rinsed with water four times. […] Germination was determined after a 4-day incubation, whereas hypocotyl growth was photographed after 6-day incubation.

Arabidopsis plants [1] = assay: Transpirational water loss of detached leaves; conditions: 25 μM spray
Description: (§1) Physiological assays were performed on Arabidopsis plants grown at 22±2° C. and relative humidity (RH) 45±10% under a 16/8-h light/dark cycle. For transpirational water loss analyses in Arabidopsis, plants were pre-treated by aerosol spray of 4 ml solution containing 25 μM compound and 0.05% Tween-20. 12 4-week old plants were sprayed per compound or control analyzed. After overnight pre-treatment with compounds, the aerial portions were detached from roots, and their fresh weight measured at 20 min intervals over a 2 hour time period. To measure stomatal aperture, plants were pre-treated with compounds as described above, covered with plastic lids to maintain high RH and after overnight pre-treatment leaf epidermal impressions were obtained using Suzuki's Universal Micro-Printing (SUMP) method using SUMP impression solution with SUMP B plates (SUMP Laboratory). The leaf impressions were analyzed by light microscopy and stomatal apertures were determined from the pore widths using ImageJ 1.43v software (National Institutes of Health, USA). […] Pots were covered in Parafilm to so that the water loss measured was transpiration mediated. Soil water content % was determined by measuring pot weight and computed by removing dry soil weight from total weight.

Arabidopsis plants [2] = assay: Stomatal aperture measurement; conditions: wild-type, aba2 and abi1-1; 25 μM spray
Description: as §1

soybean plants = assay: Soybean drought stress assay; conditions: 50 μM, aerosol every 3 days
Description: FIG. 8A-FIG. 8B. Quinabactin confers drought stress tolerance to wild-type plants. (A) Effect of quinabactin on Arabidopsis drought tolerance. Two-week-old plants were subjected to drought stress by withholding water and were photographed after 12 days. During the drought period, plants were treated every 3 days with 25 μM compound. Plants were re-hydrated after 2 weeks drought treatment; the number of surviving plants (out of total number tested) for each treatment is shown next to each image. (B) Effects of quinabactin on soybean. Two-week-old plants were subjected to drought stress by withholding water and photographed after 8 days drought treatment. […]
Physiological assays were performed on Arabidopsis plants grown at 22±2° C. and relative humidity (RH) 45±10% under a 16/8-h light/dark cycle. […] 12 4-week old plants were sprayed per compound or control analyzed. After overnight pre-treatment with compounds, the aerial portions were detached from roots, and their fresh weight measured at 20 min intervals over a 2 hour time period. […] The leaf impressions were analyzed by light microscopy and stomatal apertures were determined from the pore widths using ImageJ 1.43v software (National Institutes of Health, USA). […] Pots were covered in Parafilm to so that the water loss measured was transpiration mediated. […]

[3] = tested on: broccoli, radish, alfalfa, soybean, barely, wheat, sorghum and maize seeds; assay: Germination inhibition in diverse species; conditions: barley
Text: (§2) FIG. 13A-FIG. 13E. LC66C6 modulates ABA responses in diverse species. Germination inhibition (A) and transpirational water loss in detached leaves 2-hours after detachment (B) in response to compounds shown. The expression of ABA-responsive marker genes in Soybean (C), Barley (D) and Maize (E) after application of chemicals. D, P, L and A indicate DMSO, pyrabactin, LC66C6 and (+)-ABA, respectively.

HVA1 and HvDRF1 = assay: Quantitative RT-PCR of ABA-responsive genes in barley
Text: as §2
Total RNA was isolated using Plant RNA purification reagent (Invitrogen, USA) according to the manufacturer's instructions. cDNA was synthesized from 1 μg of total RNA using the QantiTec reverse transcription kit (Qiagen, USA). Real-time PCR using Maxima® SYBR Green/Fluorescein qPCR Master Mix (Fermentas) was performed with the iQ5 real-time PCR detection system (Bio-Rad, Hercules, Calif.). The relative amounts of target mRNAs were determined using the relative standard curve method and were normalized by relative amount of internal control mRNA. Biological triplicate experiments were performed.

Physcomitrella patens = assay: Protonema growth of moss; conditions: 200 μM for 10 days
Description: (§3) FIG. 17A-FIG. 17D. The effect of ABA and its agonists in Physcomitrella patens and Chlamydomonas. Protonemal growth images (A) and quantitative analysis (B) of the effects of ABA and agonists on Phsycomitrella patens. Protonema were grown on 200 μM of specific test chemical for 10 days. […] Pyrabactin bleached protonema. (C) The expression of ABA-responsive genes of Physcomitrella patens. Protonema were treated with 200 μM chemical solutions for 3 h. (D) Colony growth of Chlamydomonas on the chemical with salinity stress and osmotic stress. There was no effect of ABA and LC66C6 on the Chlamydomonas growth with and without stresses.

Chlamydomonas = assay: Colony growth of Chlamydomonas with and without salinity and osmotic stress
Description: as §3

| SMILES | Inhibition of germination of wild-type seeds (Arabidopsis seeds) | Transpirational water loss in detached leaves (Arabidopsis plants [1]; abi1-1 mutant) | Transpirational water loss in detached leaves (Arabidopsis plants [1]; wild-type and aba2 mutant) | Stomatal closure (Arabidopsis plants [2]) | Drought stress tolerance (soybean plants) | Inhibition of germination in diverse species [3] | Expression of ABA-responsive genes HVA1 and HvDRF1 (HVA1 and HvDRF1) | Growth of protonema (Physcomitrella patens) | Growth of Chlamydomonas (Chlamydomonas) |
| --- | --- | --- | --- | --- | --- | --- | --- | --- | --- |
| CCCN1C(=O)CCc2cc(NS(=O)(=O)Cc3ccc(C)cc3)ccc21 [LC66C6] | nearly as effective, on a per mole basis, at inhibiting germination as (+)-ABA; also recorded: one of the most effective agonists, after (+)-ABA, at inhibiting germination of wild-type seeds | did not reduce transpirational water loss | reduced the amount of transpirational water loss | induces stomatal closure in wild-type and the aba2 mutant, but not in the abi1-1 mutant | confers drought stress tolerance similar to that conferred by treatment with (+)-ABA | inhibits germination; also recorded: greater than pyrabactin | moderately induces | weak but significant inhibition | no effect |
| O=S(=O)(NCc1ccccn1)c1ccc(Br)c2ccccc12 [pyrabactin, reference compound] | – | – | – | – | – | – | – | bleached the protonema | bleached the Chlamydomonas |
